Data reported in publication PMC8878317, “Chemogenomics identifies acetyl-coenzyme A synthetase as a target for malaria treatment and prevention” (Cell Chemical Biology, 2022).

What was measured:
Assay type in all cases: cell-based
P. falciparum 3D7-A10 = experiment: Blood-stage dose-response assay (SYBR Green I, 72 hr), 3D7 / 3D7-A10 parent; conditions: Plasmodium falciparum, mean ± SD, n bioreplicates, read-out: 3D7-A10 parent EC50 ± SD
Experimental: (§1) The 3D7-A10 clone has been used in previous in vitro drug selection and sequencing efforts ([Cowell et al., 2018]). Dd2 parasites were obtained from T. Wellems (NIAID, NIH). Dd2-B2 is a genetically homogeneous line that was cloned from Dd2 by limiting dilution in the Fidock lab. Parasite strains were cultured in 3-5% human O+ hematocrit in RPMI 1640 (Life Technologies) supplemented with 28 mM NaHCO3, 25 mM HEPES, and hypoxanthine ([…]). Depending on the parasite line, the media either contained gentamycin (25 μg/mL), or no antibiotic and was additionally supplemented with 0.5% AlbuMAX II (Life Technologies) and/or O+ human serum (heat inactivated and pooled). Blood and serum products were obtained from Interstate Blood Bank. Cultures were maintained at 37°C in 1.1% O2, 4% CO2, and 95% N2. Parasite populations were synchronized by 5% sorbitol treatment ([Lambros and Vanderberg, 1979]).
(§2) For in vitro–selected lines, drug susceptibility was measured by SYBR Green I–based assay ([Johnson et al., 2007]; [Smilkstein et al., 2004]). Ring-stage parasites were cultured for 72 hr at 1% hematocrit and 1% starting parasitemia in 384-well black clear-bottom plates containing test compounds plated in triplicate in 12-point serial dilutions. Lysis buffer (0.16% w/v saponin, 1.6% Triton X-100, 5 mM EDTA, and 20 mM Tris-HCl, pH 7.4) with SYBR Green I fluorescent dye (Invitrogen) was added, and fluorescence readings were taken (excitation at 494 nm, emission at 530 nm). Alternatively, Dd2-B2 ring-stage cultures at 0.3% parasitemia and 1% hematocrit were exposed for 72 hr to a range of ten drug concentrations that were 2-fold serially diluted in duplicates along with drug-free controls. Parasite survival was assessed by flow cytometry on an Accuri C6 (BD Biosciences) using SYBR Green and MitoTracker Deep Red FM (Life Technologies) as nucleic acid stain and vital dyes respectively. EC50 values were calculated using a nonlinear regression curve fit in Prism Software version 8 (GraphPad).

P. falciparum Dd2-B2 = experiment: Blood-stage dose-response assay (72 hr), Dd2 / Dd2-B2 parent; conditions: Plasmodium falciparum, DD2, read-out: Dd2-B2 parent EC50 ± SD (nM)
Experimental: as §1, §2

[1] = tested on: P. falciparum Dd2:A597V (CRISPR edited PfAcAS); experiment: Blood-stage dose-response assay, CRISPR-edited Dd2:A597V line; conditions: Plasmodium falciparum, mean ± SD, n bioreplicates
Experimental: as §2
(§3) Mutant PfAcAS-A597V and PfAcAS-T648M parasites were generated using CRISPR/Cas9. The guide RNAs for PfAcAS-A597V (5′-[…]-3′; 5′-[…]-3′) and for PfAcAS-T648M (5′-[…]-3′) were designed using Benchling (https://benchling.com/) to targeting sites in PfAcAS that were 6-14 bp upstream of the A597 codon and 6 bp downstream of the T648 codon respectively. Complementary oligos encoding the gRNA sequences (5′- tatt[…]-3’ / 5’-aaac[…]-3’; 5’-tatt[…]-3’ / 5’-aaac[…]-3’ and 5’- tattg[…]-3’ / 5’-aaac[…]c-3’ ) were phosphorylated using T4 polynucleotide kinase and annealed (95°C for 5 min, then step down of 5°C/min to 25°C) prior to ligation into the BbsI-digested pDC2-coCas9-U6.2-hDHFR plasmid ([Lim et al., 2016]). The donor template for PfAcAS-A597V was synthesized (ThermoFisher) as a 700 bp Genestring fragment spanning position 1468 to 2168 of the PfAcAS gene, and the donor for PfAcAS-T648M synthesized as a 829 bp fragment spanning position 1468 to 2297 and inserted into the AatII/EcoRI sites of the pDC2-coCas9-gRNA-hDHFR plasmid by Gibson assembly. Ring-stage parasites (Dd2) at 5% parasitemia were transfected by electroporation (BioRad Gene Pulser II at 0.310 kV and 950 μF) with 50 μg of each plasmid (plasmid 1: pDC2-coCas9-AcAS-A597V-gRNA1-hDHFR, plasmid 2: pDC2-coCas9-gRNA2-hDHFR, or plasmid 3: pDC2-coCas9-AcAS-T648M-gRNA1-hDHFR), and parasites selected for 10 days with 2.5 nM WR99210 (Jacobus Pharmaceuticals), followed by removal of drug pressure. After confirmation of editing in the bulk culture, clones were isolated by serial limiting dilution and confirmed by Sanger sequencing after PCR amplification from genomic DNA using forward primer 5′-[…]-3′ and reverse primer 5′-[…]-3′ (for A597V) and 5′-[…]-3′ (for T648M).

[2] = tested on: P. falciparum Dd2:T648M (CRISPR edited PfAcAS); experiment: Blood-stage dose-response assay, CRISPR-edited Dd2:T648M line; conditions: Plasmodium falciparum, mean ± SD, n bioreplicates
Experimental: as §2, §3

[3] = tested on: histone acetylation in P. falciparum 3D7-A10; experiment: Histone acetylation Western blot, wild-type 3D7-A10; conditions: trophozoites, 3 h exposure
Experimental: Synchronous trophozoite-stage (24-32hr post-invasion) cultures at 3–5% parasitemia and 2% hematocrit in complete medium were exposed to test compounds for 3 hr at 37°C. […] DMSO was tested at 0.1% as the vehicle-only control. Following drug exposure, parasites were isolated via saponin lysis ice-cold 0.1% saponin in phosphate-buffered saline (PBS). Isolated parasites were washed 3x in ice-cold PBS containing protease inhibitor cocktail (cOmplete mini, Roche) and lysed in 1x Laemmli Sample Buffer (Biorad) with 5% beta-mercaptoethanol (Sigma-Aldrich). Samples were heated at 99°C for 10 min before centrifugation. Equal quantities of solute were separated on Protean TGX Precast Gels (4–20% gradient) in Tris-SDS-glycine buffer, transferred to nitrocellulose membrane by iblot (Invitrogen), and blocked for 1h in tris-buffered saline (TBS) with 5% skim milk powder. Blocked membranes were probed with antibodies recognising tetra-acetylated H4 (H4ac4, Sigma-Aldrich 06–866), H4K8ac (CST #2594), H3K9ac (CST #9649) or H3 (CST #4499), at 1:1000 dilution, and PfBiP ([Shonhai et al., 2007]) (at 1:5000 dilution) in 3% milk powder TBS with 0.1% Tween 20 at 4°C overnight and with 800CW goat α-rabbit IgG (Licor) at 1:10,000 dilution. Membranes were visualised using a Licor Odyssey CLX imaging system and quantified using ImageJ.

| SMILES | EC50 (P. falciparum 3D7-A10) [nM] | EC50 (P. falciparum Dd2-B2) [nM] | EC50 [1] [nM] | EC50 [2] [nM] | acetylation of H4K8ac, H3K9ac and tetra-acetylated H4 (H4Ac4) histone markers relative to DMSO [3] |
| --- | --- | --- | --- | --- | --- |
| CCN(CC)Cc1cc(Nc2ccnc3cc(Cl)ccc23)ccc1O [Amodiaquine] | 7.4 ± 1.8 | 19 ± 6 | 21 ± 2.5 | 20 ± 8.6 | – |
| C[C@H]1[C@@H](O)O[C@@H]2O[C@@]3(C)CC[C@H]4[C@H](C)CC[C@@H]1[C@@]24OO3 [Dihydroartemisinin] | 2.6 ± 1.6 | 4.6 ± 3 | 5.6 ± 3.5 | 3.7 ± 3 | – |
| OC(c1cc(C(F)(F)F)nc2c(C(F)(F)F)cccc12)C1CCCCN1 (stereo not shown) [Mefloquine] | 18 ± 4.6 | 15 ± 5.7 | 31 ± 17 | 20 ± 11 | – |
| CC(/C=C/C(=O)NO)=C\[C@@H](C)C(=O)c1ccc(N(C)C)cc1 [trichostatin A] | – | – | – | – | significant increase |
